Measured values reported in patent US20250230138A1, “COMPOUNDS HAVING A T-STRUCTURE FORMED BY AT LEAST FOUR CYCLES FOR USE IN THE TREATMENT OF CANCER AND OTHER INDICATIONS” (TheRas, Inc., priority 2022, published 2025).
Like-named read-outs stand apart in the source and are kept apart here.

Legend:
[1] = biological target: Cys242 in human PIK3CA (157-299) (Homo sapiens (Human), UniProt P42336); assay: Covalent modification assay using MALDI-TOF MS; assay type: biochemical; conditions: 4 h reaction time point
In short: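 PIK3CA (157-299) at 3.33 μM or 1 μM in 20 mM HEPES, 150 mM NaCl, 2 mM MgCl2, pH 7.3 was incubated with compound (from 10 mM DMSO stocks) in the dark at room temperature for 15 min, 30 min, 2 h or 4 h. Linear-mode MALDI-TOF peak heights gave percent modification.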

[2] = test system: pAKT in BT474 cells; assay: Cell-based pAKT HTRF assay in BT474 cells; conditions: BT474 cells, 4 hr incubation, read-out: pAKT inhibition IC50 in BT474 cells
In short: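 9-pt curve, top 3 μM, 3-fold steps, 0.25% DMSO; 4 hr compound exposure. Lysis, then HTRF with d2/Eu Cryptate antibody pair, 4–24 h RT. Ex 320 nm, Em 615 nm.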

[3] = 3.33 μM protein target, 1:7.5 protein to compound ratio (compounds 1-852)
[4] = 1 μM protein target, 1:5 protein to compound ratio (compounds 853-1279)
[5] = Homo sapiens, BT-474, Compounds 10-999

Chain of Cys242 in human PIK3CA (157-299) (P42336 157-299): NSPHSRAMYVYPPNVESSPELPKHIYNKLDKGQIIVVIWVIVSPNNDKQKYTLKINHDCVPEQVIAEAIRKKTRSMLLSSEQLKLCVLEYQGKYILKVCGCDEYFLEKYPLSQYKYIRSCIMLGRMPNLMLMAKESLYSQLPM

Row | Structure (SMILES) | % of modification [1, 3] | IC50 ([2]; Compounds 10-999) [nM] | % of modification [1, 4] | IC50 ([2]; Compounds 1000-1279) [nM] | IC50 [2, 5] [nM]
1 | C=CC(=O)N1CCc2nc(-c3nc(-c4ccc5c(c4)CNC5=O)c4ccsc4c3-c3c(F)cc(F)cc3OC(C)C)sc2C1 (single isomer, unassigned) [Compound 413] | D (percent of modification <25%) | 1000 to 3000 |  |  | 
2 | C=CC(=O)N1CCn2nc(-c3nc(-c4ccc5c(c4)CN(C)CC54CC4)c4ccsc4c3-c3c(F)cc(F)cc3OCCOC)cc2C1C (stereo not drawn) [Compound 1113] |  |  | A (percent of modification of PIK3CA protein ≥75%) | < 100 | 
3 | C=CC(=O)N1CCn2nc(-c3nc(-c4ccc5c(c4)CCN(C)C5)c4ccsc4c3-c3c(F)cc(F)cc3OC[C@@H](C)O)cc2[C@H]1C [Compound 721] | A (percent of modification of PIK3CA protein ≥75%) | < 100 |  |  | 
4 | C=CC(=O)N1CCc2ncc(-c3nc(N4CCN(C(C)C)CC4)c4ccsc4c3-c3c(F)cc(F)cc3OC(C)C)cc2C1 [Compound 373] | A (percent of modification of PIK3CA protein ≥75%) | 100 to 1000 |  |  | 
5 | C=CC(=O)N1CC(n2nc(-c3nc(-c4ccc5c(c4)CCNC5)c4ccsc4c3-c3ccc(F)cc3OCCOC)ccc2=O)C1 [Compound 204] | B (50%<percent of modification <75%) | 100 to 1000 |  |  | 
6 | C=CC(=O)N1Cc2cc(-c3nc(-c4ccc(P(C)(C)=O)cc4)c4ccsc4c3-c3c(F)cc(F)cc3OCCOC)nn2C[C@H]1C [Compound 800, 1-[(6R)-2-[7-[2,4-difluoro-6-(2-methoxyethoxy)phenyl]-4-(4-dimethylphosphorylphenyl)thieno[3,2-c]pyridin-6-yl]-6-methyl-6,7-dihydro-4H-pyrazolo[1,5-a]pyrazin-5-yl]prop-2-en-1-one] | A (percent of modification of PIK3CA protein ≥75%) |  |  |  | < 100
7 | C=CC(=O)N1CC[C@@H](n2cc(-c3nc(-c4cnn(CC(F)F)c4)c4ccsc4c3-c3c(F)cc(F)cc3OC(C)C)cn2)C1 [Compound 387] | A (percent of modification of PIK3CA protein ≥75%) | 100 to 1000 |  |  | 
8 | C=CC(=O)N1CCn2nc(-c3nc(N4CC5(CCN(C)C5)C4)c4ccsc4c3-c3c(F)cc(F)cc3OCCOC)cc2C1C (stereo not drawn) [Compound 1054] |  |  | C (25%≤percent of modification <50%) | 100 to 1000 | 
9 | C=CC(=O)N1CCn2nc(-c3nc(-c4ccc5ncn(C)c5c4)c4ccsc4c3-c3c(F)cc(F)cc3OC[C@@H](C)O)cc2[C@H]1C [Compound 748] | A (percent of modification of PIK3CA protein ≥75%) | < 100 |  |  | 
10 | C=CC(=O)N1CCn2nc(-c3nc(-c4cnc5c(c4)CN(C(C)C)CC5)c4ccsc4c3-c3c(F)cc(F)cc3OC)cc2[C@H]1C (single isomer, unassigned) [Compound 1148] |  |  | A (percent of modification of PIK3CA protein ≥75%) | < 100 | 
11 | C=CC(=O)N1CCn2nc(-c3nc(-c4ccc5c(c4)NC(=O)CN(C)C5)c4ccsc4c3-c3c(F)cc(F)cc3OCCOC)cc2[C@H]1C [Compound 1132, 8-((S)-6-((R)-5-acryloyl-4-methyl-4,5,6,7-tetrahydropyrazolo[1,5-a]pyrazin-2-yl)-7-(2,4-difluoro-6-(2-methoxyethoxy)phenyl)thieno[3,2-c]pyridin-4-yl)-4-methyl-1,3,4,5-tetrahydro-2H-benzo[e][1,4]diazepin-2-one] |  |  | A (percent of modification of PIK3CA protein ≥75%) | < 100 | 
12 | C=CC(=O)N1CCC(n2cc(-c3nc(-c4ccc5c(c4)CNC(=O)C5)c4ccsc4c3-c3ccccc3)cn2)CC1 [Compound 75] | B (50%<percent of modification <75%) | > 3000 |  |  | 
13 | C=CC(=O)N1CCn2nc(-c3nc(-c4cnn(C)c4)c4ccsc4c3-c3ccc(F)cc3Cl)cc2C1 [Compound 291] | A (percent of modification of PIK3CA protein ≥75%) | < 100 |  |  | 
14 | CC(C)Oc1cc(F)ccc1-c1c(-c2cc3n(n2)CCN(C(=O)/C=C/CN(C)C)C3)nc(-c2ccc3c(c2)CCNC3=O)c2ccsc12 [Compound 285] | B (50%<percent of modification <75%) | 100 to 1000 |  |  | 
15 | COCCOc1cc(F)cc(F)c1-c1c(-c2cc3n(n2)CCN(C(=O)C=CCN(C)C)C3C)nc(-c2ccc3c(cnn3C)c2)c2ccsc12 (stereo not drawn) [Compound 1232] |  |  | A (percent of modification of PIK3CA protein ≥75%) | < 100 | 
16 | C=CC(=O)N1CCn2nc(-c3nc(-c4ccc5nncn5c4)c4ccsc4c3-c3c(F)cc(F)cc3OC[C@@H](C)O)cc2[C@H]1C [Compound 897] |  | < 100 | A (percent of modification of PIK3CA protein ≥75%) |  | 
17 | C=CC(=O)N1CCc2ncc(-c3nc(-c4cnn(C)c4)c4ccsc4c3-c3c(F)cc(F)cc3OCCO)cc2C1 [Compound 395] | A (percent of modification of PIK3CA protein ≥75%) | < 100 |  |  | 
18 | C=CC(=O)N1CCn2nc(-c3nc(-c4ccc5c(c4)CCNC5)c4ccsc4c3-c3ccc(F)cc3OCC3CCNC(=O)C3)cc2C1 (stereo not drawn) [Compound 261] | A (percent of modification of PIK3CA protein ≥75%) | < 100 |  |  | 
19 | C=CC(=O)N1Cc2cc(-c3nc(-c4ccc5nn(C)cc5c4)c4ccsc4c3-c3c(F)cc(F)cc3OC(C)C)nn2C[C@H]1C [Compound 525] | A (percent of modification of PIK3CA protein ≥75%) | < 100 |  |  | 
20 | C=CC(=O)N1CCc2ccc(-c3nc(-c4ccc5c(c4)CNC5=O)c4ccsc4c3-c3c(F)cc(F)cc3OC(C)C)nc2C1 [Compound 411, 5-[7-(2,4-difluoro-6-isopropoxy-phenyl)-6-(7-prop-2-enoyl-6,8-dihydro-5H-1,7-naphthyridin-2-yl)thieno[3,2-c]pyridin-4-yl]isoindolin-1-one] | A (percent of modification of PIK3CA protein ≥75%) |  |  |  | < 100
21 | C=CC(=O)N1CCn2nc(-c3nc(-c4ccc(C5(C(=O)NC)CC5)cc4)c4ccsc4c3-c3c(F)cc(F)cc3OCCO)cc2[C@H]1C [Compound 1135] |  |  | A (percent of modification of PIK3CA protein ≥75%) | < 100 | 
22 | C=CC(=O)N1CCn2nc(-c3nc(-c4ccc5c(c4)C(=O)NCC5)c4ccsc4c3-c3c(F)cc(F)cc3OCCO)cc2[C@H]1C [Compound 955] |  | < 100 | A (percent of modification of PIK3CA protein ≥75%) |  | 
23 | C=CC(=O)N1CCc2nc(-c3nc(-c4cnc5c(c4)CNC(=O)C5)c4ccsc4c3-c3ccc(F)cc3OCCOC)sc2C1 [Compound 119] | A (percent of modification of PIK3CA protein ≥75%) | < 100 |  |  | 
24 | C=CC(=O)N1CCc2nc(-c3nc(-c4cnn(C)c4N)c4ccsc4c3-c3c(F)cc(F)cc3OC(C)C)sc2C1 [Compound 351] | A (percent of modification of PIK3CA protein ≥75%) | 100 to 1000 |  |  | 
25 | C=CC(=O)N1CCn2cc(-c3nc(-c4ccc5c(c4)CCNC5)c4ccsc4c3-c3ccc(F)cc3OCCOC)nc2C1 [Compound 101, 1-[2-[7-[4-fluoro-2-(2-methoxyethoxy)phenyl]-4-(1,2,3,4-tetrahydroisoquinolin-6-yl)thieno[3,2-c]pyridin-6-yl]-6,8-dihydro-5H-imidazo[1,2-a]pyrazin-7-yl]prop-2-en-1-one] | A (percent of modification of PIK3CA protein ≥75%) |  |  |  | < 100
26 | COCCOc1cc(F)cc(F)c1-c1c(-c2cc3n(n2)CCN(C#N)C3C)nc(-c2ccc3c(cnn3C)c2)c2ccsc12 (stereo not drawn) [Compound 1233] |  |  | D (percent of modification <25%) | 100 to 1000 | 
27 | C=CC(=O)N1Cc2cc(-c3nc(-c4ccc5c(c4)CCN(C)CC5)c4ccsc4c3-c3c(F)cc(F)cc3OCCOC)nn2C[C@H]1C [Compound 841] | A (percent of modification of PIK3CA protein ≥75%) | < 100 |  |  | 
28 | C=CC(=O)N1CCc2nc(-c3nc(-c4ccc(N5CCN(C)CC5)nc4)c4ccsc4c3-c3c(F)cc(F)cc3OCCOC)sc2C1 [Compound 976] |  | < 100 | A (percent of modification of PIK3CA protein ≥75%) |  | 
29 | C=CC(=O)N1CCn2nc(-c3nc(-c4ccc5c(c4)CCN(C)C5)c4ccsc4c3-c3c(F)cc(F)cc3OC3CC3)cc2C1C (stereo not drawn) [Compound 549] | A (percent of modification of PIK3CA protein ≥75%) | < 100 |  |  | 
30 | C=CC(=O)N1CCn2nc(-c3nc(-c4ccc5c(c4)CCN(C)C5)c4ccsc4c3-c3c(F)cc(F)cc3OC(C)C)cc2[C@@H]1C [Compound 502] | A (percent of modification of PIK3CA protein ≥75%) | < 100 |  |  | 
